Results reported in patent US20090325964A1, “Piperazine Metabotropic Glutamate Receptor 5 (MGLUR5) Negative Allosteric Modulators For Anxiety/Depression” (Wyeth, priority 2008, published 2009).

What was measured:
mGluR5 = mGluR5 (Rattus norvegicus, UniProt P31424); assay: IC50 column under 'Biological Activity' (assay not identified in the shown text; not the binding Ki)
rat mGluR5 receptor = target: T1, rat mGluR5 receptor (Rattus norvegicus, UniProt P31424); assay: [3H]-MPEP displacement binding assay, HEK-293 cell membranes expressing rat mGluR5; settings: [3H]-MPEP displacement, rat mGluR5 membranes; read-out: Median Ki
T1 construct: expressed in transfected cells; host or cells: HEK-293
Procedure, shortened: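 Membranes from HEK-293 cells expressing rat mGluR5 (12-25 μg protein), incubated 60 min at room temperature with 4 nM [3H]-MPEP in 50 mM Tris pH 7.5, then filtered. Nonspecific binding defined with 10 μM MPEP.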

T1 sequence (P31424 21-1203): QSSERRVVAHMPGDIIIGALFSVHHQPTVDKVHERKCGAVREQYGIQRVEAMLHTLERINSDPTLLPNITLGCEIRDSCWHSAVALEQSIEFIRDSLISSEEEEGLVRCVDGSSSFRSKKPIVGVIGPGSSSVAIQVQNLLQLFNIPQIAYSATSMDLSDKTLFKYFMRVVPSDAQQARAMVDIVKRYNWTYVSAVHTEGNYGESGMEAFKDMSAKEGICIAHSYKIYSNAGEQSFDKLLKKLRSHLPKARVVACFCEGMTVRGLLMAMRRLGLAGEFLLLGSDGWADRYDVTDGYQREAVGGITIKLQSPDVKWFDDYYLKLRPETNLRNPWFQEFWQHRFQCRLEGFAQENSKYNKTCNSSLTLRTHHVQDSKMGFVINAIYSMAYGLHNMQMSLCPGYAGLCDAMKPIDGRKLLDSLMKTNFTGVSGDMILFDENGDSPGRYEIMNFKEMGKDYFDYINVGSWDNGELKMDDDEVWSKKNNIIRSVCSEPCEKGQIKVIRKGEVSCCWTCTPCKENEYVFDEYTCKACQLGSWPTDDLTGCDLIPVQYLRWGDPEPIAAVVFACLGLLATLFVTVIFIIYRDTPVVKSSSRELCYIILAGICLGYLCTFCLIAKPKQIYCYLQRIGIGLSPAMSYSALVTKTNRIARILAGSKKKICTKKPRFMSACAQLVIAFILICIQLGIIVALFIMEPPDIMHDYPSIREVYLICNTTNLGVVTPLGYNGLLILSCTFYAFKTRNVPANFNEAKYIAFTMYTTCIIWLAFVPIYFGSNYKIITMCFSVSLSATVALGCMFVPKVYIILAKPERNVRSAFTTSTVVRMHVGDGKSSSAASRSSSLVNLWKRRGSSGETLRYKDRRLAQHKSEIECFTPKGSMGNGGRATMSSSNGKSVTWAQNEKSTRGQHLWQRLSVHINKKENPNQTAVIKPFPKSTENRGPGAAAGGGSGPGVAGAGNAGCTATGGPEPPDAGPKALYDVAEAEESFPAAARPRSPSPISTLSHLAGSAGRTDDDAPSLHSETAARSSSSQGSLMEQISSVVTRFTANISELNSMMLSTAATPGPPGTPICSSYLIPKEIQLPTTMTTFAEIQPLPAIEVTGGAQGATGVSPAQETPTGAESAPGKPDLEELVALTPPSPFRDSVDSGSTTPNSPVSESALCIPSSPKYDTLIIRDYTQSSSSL
Chain of mGluR5 (P31424 21-1203): as above

SMILES	IC50 (mGluR5)	Ki (rat mGluR5 receptor)
O=C(c1ccc(OC(F)F)c(C#Cc2ccccn2)c1)N1CCN(c2nsc3ccccc23)CC1 [Compound 383, 3-(4-{[4-(difluoromethoxy)-3-(pyridin-2-ylethynyl)phenyl]carbonyl}piperazin-1-yl)-1,2-benzisothiazole]	0.041 µM	0.001 µM
O=C(c1ccc(Cl)c(C#Cc2ccccn2)c1)N1CCN(c2ccncc2)CC1 [Compound 391, 1-[4-chloro-3-(pyridin-2-ylethynyl)benzoyl]-4-pyridin-4-ylpiperazine]	1.49 µM	0.079 µM
O=C(c1ccc(Cl)c(C#Cc2ccccn2)c1)N1CCN(c2ncccn2)CC1 [Compound 387, 2-{4-[4-chloro-3-(pyridin-2-ylethynyl)benzoyl]piperazin-1-yl}pyrimidine]	0.131 µM	0.01 µM
O=C(c1ccc(C(F)(F)F)c(C#Cc2ccccn2)c1)N1CCN(c2nccs2)CC1 [Compound 378, 1-{[3-(pyridin-2-ylethynyl)-4-(trifluoromethyl)phenyl]carbonyl}-4-(1,3-thiazol-2-yl)piperazine]	0.043 µM	0.049 µM
O=C(c1ccc(OC(F)F)c(C#Cc2ccccn2)c1)N1CCN(c2noc3ccccc23)CC1 [Compound 384, 3-(4-{[4-(difluoromethoxy)-3-(pyridin-2-ylethynyl)phenyl]carbonyl}piperazin-1-yl)-1,2-benzisoxazole]	0.016 µM	0.001 µM
COc1ccnc(N2CCN(C(=O)c3ccc(C(F)(F)F)c(C#Cc4ccccn4)c3)CC2)n1 [Compound 373, 4-methoxy-2-(4-{[3-(pyridin-2-ylethynyl)-4-(trifluoromethyl)phenyl]carbonyl}piperazin-1-yl)pyrimidine]	0.034 µM	0.04 µM
